The values that follow come from patent publication US20200262865A1, “COMPOSITIONS AND METHODS FOR TREATING CLOSTRIDIUM ASSOCIATED DISEASES” (REGENTS OF THE UNIVERSITY OF MINNESOTA, priority 2016, published 2020).

Read-outs that look alike come from different tables or passages of the source.

The subject of data set [1] is NAP1 spores. In words: Phase-contrast (microscope) spore count assay. In kind it is cell-based, Clostridium difficile. Conditions: for Percent Spore Germination t20 / Percent Spore Germination Relative to control / Percent Spore Germination t0: 10 μM bile acid analog; for Percent Spore Germination t20 / Percent Spore Germination Relative to control / inhibitor of spore germination (rating in words from Table 1 data): 2000 μM taurocholic acid; for Percent Spore Germination t20 / Percent Spore Germination Relative to control: after 20 minutes; for Percent Spore Germination t0: time zero, before exposure to TCA; for inhibitor of spore germination (rating in words from Table 1 data): 10 μM, 20 minutes.

For data set [2] the following is noted: rat, in vivo; cited from earlier work.
Data set [3] deals with Spores from a NAP1 strain of C. difficile. Description: Optical density (OD600) C. difficile spore germination assay. The format is cell-based, Clostridium difficile. Conditions: BHIS with 2000 μM TCA, OD600 over 20 minutes; for IC100: read-out: concentration giving essentially complete inhibition of spore germination.
For data set [4], the system named is highly virulent NAP1 strain of C. difficile. The conditions noted are these: cited from earlier work.
The mark [5] stands for this setting: Clostridioides difficile, 20 min.

Turning to `CO[C@@H]1CC[C@@]2(C)[C@@H](C1)C[C@H](O)[C@@H]1[C@@H]2CC[C@]2(C)[C@@H]([C@H](C)CCc3nnn[n-]3)CC[C@@H]12.[Na+]` [Example 15], in data set [1], the “Percent Spore Germination t20” value is 31 ± 4%, the “Percent Spore Germination Relative to control” value was 26 ± 4%, the “Percent Spore Germination t0” value was determined as 16 ± 4% and the “inhibitor of spore germination (rating in words from Table 1 data)” value (shortened to “inhibitor of spore germination”) was “moderate inhibitors”.

On to `CC(CCC(=O)O)C1CCC2C3C(OS(=O)(=O)O)CC4CC(O)CCC4(C)C3CCC12C` (stereo not shown) [C7-sulfated UDCA], for which the “absorption from the colon” value in data set [2] was “poorly absorbed”.

For `CO[C@@H]1CC[C@@]2(C)[C@@H](C1)C[C@H](O)[C@@H]1[C@@H]2CC[C@]2(C)[C@@H]([C@H](C)CCC(=O)O)CC[C@@H]12` [KLS-1-014B], the “concentration giving partial inhibition of spore germination” value (from here on “concentration giving partial inhibition”) in data set [3] is listed as 0.50 mM.

For the compound `CCCCNC(=O)CC[C@@H](C)[C@H]1CC[C@H]2[C@@H]3[C@@H](O)C[C@@H]4C[C@H](O)CC[C@]4(C)[C@H]3CC[C@]12C` [Comparative Example 4], the IC100 in data set [3] (setting [5]) stood at 500 µM.

Take `CCCCNC(=O)CC[C@@H](C)[C@H]1CC[C@H]2[C@@H]3[C@H](O)C[C@@H]4C[C@H](O)CC[C@]4(C)[C@H]3CC[C@]12C` [Comparative Example 3]: the IC100 in data set [3] (setting [5]) was found to be 500 µM.

`CO[C@@H]1CC[C@@]2(C)[C@@H](C1)C[C@@H](OS(=O)(=O)[O-])[C@@H]1[C@@H]2CC[C@]2(C)[C@@H]([C@H](C)CCc3nnn[n-]3)CC[C@@H]12.[Na+].[Na+]` [Example 18]: in data set [3], the IC100 amounted to 25 µM. Further, in data set [1], the “Percent Spore Germination t20” value is recorded as 48 ± 11%, the “Percent Spore Germination Relative to control” value was found to be 51 ± 11%, the “Percent Spore Germination t0” value is 20 ± 11% and the “inhibitor of spore germination” value was “moderate inhibitors”.

As for `CC(=O)O[C@@H]1CC[C@@]2(C)[C@@H](C1)C[C@@H](OC(C)=O)[C@@H]1[C@@H]2CC[C@]2(C)[C@@H]([C@H](C)CCC(N)=O)CC[C@@H]12` [Comparative Example 20], in data set [3] (setting [5]), the IC100 was found to be 50 µM.

`COC(=O)CC[C@@H](C)[C@H]1CC[C@H]2[C@@H]3[C@H](O)C[C@@H]4C[C@H](O)CC[C@]4(C)[C@H]3CC[C@]12C` [Comparative Example 1, reference compound]: in data set [3] (setting [5]), the IC100 worked out at 500 µM. In data set [1], the “Percent Spore Germination t20” value is 71 ± 1%, the “Percent Spore Germination Relative to control” value stood at 73 ± 1%, the “Percent Spore Germination t0” value amounted to 25 ± 6% and the “inhibitor of spore germination” value is “weak inhibitors”.

Regarding `COC(=O)CC[C@@H](C)[C@H]1CC[C@H]2[C@@H]3[C@@H](O)C[C@@H]4C[C@H](O)CC[C@]4(C)[C@H]3CC[C@]12C` [Comparative Example 2], in data set [3] (setting [5]), the IC100 was found to be 100 µM.

On to `CO[C@@H]1CC[C@@]2(C)[C@@H](C1)C[C@H](OC)[C@@H]1[C@@H]2CC[C@]2(C)[C@@H]([C@H](C)CCC(=O)O)CC[C@@H]12` [KLS-1-014A], for which the “concentration giving partial inhibition” value in data set [3] is 1.0 mM.

Consider `C[C@H](CCC1=NC(C)(C)CO1)[C@H]1CC[C@H]2[C@@H]3[C@@H](O)C[C@@H]4C[C@H](O)CC[C@]4(C)[C@H]3CC[C@]12C` [Example 9], for which the IC100 in data set [3] (setting [5]) came to 500 µM.

`COC(=O)CC[C@@H](C)[C@H]1CC[C@H]2[C@@H]3[C@@H](O)C[C@@H]4C[C@H](OC)CC[C@]4(C)[C@H]3CC[C@]12C` [KLS-1-031C]: in data set [3] (setting [5]), the IC100 was found to be 500 µM.

With `COC(=O)CC[C@@H](C)[C@H]1CC[C@H]2[C@@H]3C[C@H](O)[C@@H]4C[C@H](O)CC[C@]4(C)[C@H]3CC[C@]12C` [Example 3], in data set [3] (setting [5]), the IC100 is 500 µM.

Take `COC(=O)CC[C@@H](C)[C@H]1CC[C@H]2[C@@H]3[C@H](OC)C[C@@H]4C[C@H](O)CC[C@]4(C)[C@H]3CC[C@]12C` [Comparative Example 14]: the IC100 in data set [3] (setting [5]) amounted to 500 µM.

Turning to `COC(=O)CC[C@@H](C)[C@H]1CC[C@H]2[C@@H]3[C@@H](OC)C[C@@H]4C[C@H](O)CC[C@]4(C)[C@H]3CC[C@]12C` [Comparative Example 11], in data set [3] (setting [5]), the IC100 is 500 µM.

Turning to `CO[C@@H]1CC[C@@]2(C)[C@@H](C1)C[C@H](OS(=O)(=O)[O-])[C@@H]1[C@@H]2CC[C@]2(C)[C@@H]([C@H](C)CCc3nnn[n-]3)CC[C@@H]12.[Na+].[Na+]` [Example 17], in data set [1], the “Percent Spore Germination t20” value is given as 44 ± 3%, the “Percent Spore Germination Relative to control” value amounted to 42 ± 3%, the “Percent Spore Germination t0” value is given as 21 ± 3% and the “inhibitor of spore germination” value is given as “moderate inhibitors”.

Turning to `C[C@H](CCC(=O)N1CCCC1)[C@H]1CC[C@H]2[C@@H]3[C@H](O)C[C@@H]4C[C@H](O)CC[C@]4(C)[C@H]3CC[C@]12C` [Example 2], in data set [3] (setting [5]), the IC100 was 100 µM.

In the case of `C[C@H](CCc1nnn[n-]1)[C@H]1CC[C@H]2[C@@H]3[C@H](O)C[C@@H]4C[C@H](O)CC[C@]4(C)[C@H]3CC[C@]12C.[Na+]` [Example 14], the IC100 in data set [3] is given as 10 µM. Besides, in data set [1], the “Percent Spore Germination t20” value was found to be 22 ± 6%, the “Percent Spore Germination Relative to control” value worked out at 12 ± 6%, the “Percent Spore Germination t0” value is 15 ± 6% and the “inhibitor of spore germination” value is “potent inhibitors”.

For the compound `CO[C@H]1C[C@@H]2C[C@H](O)CC[C@]2(C)[C@H]2CC[C@]3(C)[C@@H]([C@H](C)CCC(=O)O)CC[C@H]3[C@H]12` [Comparative Example 10, reference compound], the “concentration giving partial inhibition” value in data set [3] was determined as 0.5 mM. In data set [1], the “Percent Spore Germination t20” value was 71 ± 2%, the “Percent Spore Germination Relative to control” value is listed as 75 ± 2%, the “Percent Spore Germination t0” value was found to be 25 ± 4% and the “inhibitor of spore germination” value is “weak inhibitors”.

Take `C[C@H](CCC(=O)N1CCCC1)[C@H]1CC[C@H]2[C@@H]3[C@@H](O)C[C@@H]4C[C@H](O)CC[C@]4(C)[C@H]3CC[C@]12C` [Example 1]: the IC100 in data set [3] (setting [5]) was 100 µM.

On to `CO[C@@H]1CC[C@@]2(C)[C@@H](C1)C[C@@H](O)[C@@H]1[C@@H]2CC[C@]2(C)[C@@H]([C@H](C)CCC(=O)O)CC[C@@H]12` [KLS-1-012B], for which the “concentration giving partial inhibition” value in data set [3] was 0.1 mM.

Regarding `COC(=O)CC[C@@H](C)[C@H]1CC[C@H]2[C@@H]3[C@H](O)C[C@@H]4C[C@H](OC)CC[C@]4(C)[C@H]3CC[C@]12C` [KLS-1-029D], the IC100 in data set [3] (setting [5]) was 500 µM.

Consider `CO[C@@H]1CC[C@@]2(C)[C@@H](C1)C[C@H](OS(=O)(=O)[O-])[C@@H]1[C@@H]2CC[C@]2(C)[C@@H]([C@H](C)CCC(=O)N3CCCC3)CC[C@@H]12.[Na+]` [Example 7], for which, in data set [1], the “Percent Spore Germination t20” value was found to be 30 ± 6%, the “Percent Spore Germination Relative to control” value is 9 ± 5%, the “Percent Spore Germination t0” value stood at 18 ± 2% and the “inhibitor of spore germination” value is “potent inhibitors”.

Take `CO[C@@H]1CC[C@@]2(C)[C@@H](C1)C[C@@H](O)[C@@H]1[C@@H]2CC[C@]2(C)[C@@H]([C@H](C)CCc3nnn[n-]3)CC[C@@H]12.[Na+]` [Example 16]: the IC100 in data set [3] was 5 µM. In data set [1], the “Percent Spore Germination t20” value stood at 21 ± 4%, the “Percent Spore Germination Relative to control” value was found to be 8 ± 4%, the “Percent Spore Germination t0” value is reported as 16 ± 4% and the “inhibitor of spore germination” value is given as “potent inhibitors”.

In the case of `C[C@H](CCC(=O)Nc1cccc(S(=O)(=O)O)c1)[C@H]1CC[C@H]2[C@@H]3[C@H](O)C[C@@H]4C[C@H](O)CC[C@]4(C)[C@H]3C[C@H](O)[C@]12C` [CamSA], the “efficacy at inhibiting germination” value in data set [4] is reported as “very little efficacy”.

As for `C[C@H](CCc1nnn[nH]1)[C@H]1CCC2C3C(CC[C@@]21C)[C@@]1(C)CC[C@@H](O)CC1C[C@@H]3O` (stereo partly shown) [Example 12], in data set [1], the “Percent Spore Germination t20” value was 29 ± 4%, the “Percent Spore Germination Relative to control” value is 19 ± 4%, the “Percent Spore Germination t0” value was 17 ± 4% and the “inhibitor of spore germination” value is listed as “moderate inhibitors”.
